Laboratory results reported in patent US12077503B2, “Substituted cyclic amides and their use as herbicides” (FMC CORPORATION, priority 2015, dated 2024).

Tests used:
Assay type in all cases: in vivo
[1] = test system: rice (Oryra sativa); test: Test B flooded paddy test; settings: Flood, 0 to 100 scale where 0 is no effect and 100 is complete control, 13 to 15 d
Method: (§1) Plant species in the flooded paddy test selected from rice (Oryra sativa), sedge, umbrella (small-flower umbrella sedge, Cyperus difformis), ducksalad (Heteranthera limosa), and barnyardgrass (Echinochloa crus-galli) were grown to the 2-leaf stage for testing. At time of treatment, test pots were flooded to 3 cm above the soil surface, treated by application of test compounds directly to the paddy water, and then maintained at that water depth for the duration of the test. Treated plants and controls were maintained in a greenhouse for 13 to 15 d, after which time all species were compared to controls and visually evaluated. Plant response ratings, summarized in Table B, are based on a scale of 0 to 100 where 0 is no effect and 100 is complete control. A dash (-) response means no test result.

[2] = test system: sedge, umbrella (small-flower umbrella sedge, Cyperus difformis); test: Test B flooded paddy test; settings: Flood, 0 to 100 scale where 0 is no effect and 100 is complete control, 13 to 15 d
Method: as §1

[3] = test system: barnyardgrass (Echinochloa crus-galli); test: Test B flooded paddy test; settings: Flood, 0 to 100 scale where 0 is no effect and 100 is complete control, 13 to 15 d
Method: as §1

[4] = test system: ducksalad (Heteranthera limosa); test: Test B flooded paddy test; settings: Flood, 0 to 100 scale where 0 is no effect and 100 is complete control, 13 to 15 d
Method: as §1

[5] = test system: giant foxtail (Setaria faberii); test: Test A preemergence; settings: Preemergence; for Plant response rating, Foxtail, Giant: 125 g ai/ha, visual injury after approximately 10 d, 0 to 100 scale where 0 is no effect and 100 is complete control; for Foxtail, Giant plant response rating (0 to 100 scale, 0 is no effect, 100 is complete control): 500 g ai/ha, visual injury approx. 10 d
Description: (§2) Seeds of plant species selected from barnyardgrass (Echinochloa crus-galli), Kochia (Kochia scoparia), ragweed (common ragweed, Ambrosia elatior), ryegrass, Italian (Italian ryegrass, Lolium multiflorum), crabgrass, large (Digitaria sanguinalis), giant foxtail (Setaria faberii), green foxtail (Setaria viridis), morningglory (Ipomoea spp.), pigweed (Amaranthus retroflexus), velvetleaf (Abutilon theophrasti), wheat (Triticum aestivum), and corn (Zea mays) were planted into a blend of loam soil and sand and treated preemergence with a directed soil spray using test chemicals formulated in anon-phytotoxic solvent mixture which included a surfactant.
(§3) At the same time, plants selected from these crop and weed species and also blackgrass (Alopecurus myosuroides), and Galium (catchweed bedstraw, Galium aparine) were planted in pots containing the same blend of loam soil and sand and treated with postemergence applications of test chemicals formulated in the same manner. Plants ranged in height from 2 to 10 cm and were in the one- to two-leaf stage for the postemergence treatment. Treated plants and untreated controls were maintained in a greenhouse for approximately 10 d, after which time all treated plants were compared to untreated controls and visually evaluated for injury. Plant response ratings, summarized in Table A, are based on a 0 to 100 scale where 0 is no effect and 100 is complete control. A dash (-) response means no test result.

[6] = test system: barnyardgrass (Echinochloa crus-galli); test: Test A preemergence; settings: Preemergence; for Plant response rating, Barnyardgrass: 125 g ai/ha, visual injury after approximately 10 d, 0 to 100 scale where 0 is no effect and 100 is complete control; for Barnyardgrass plant response rating (0 to 100 scale, 0 is no effect, 100 is complete control): 500 g ai/ha, visual injury approx. 10 d
Description: as §2, §3

[7] = test system: ryegrass, Italian (Italian ryegrass, Lolium multiflorum); test: Test A preemergence; settings: Preemergence; for Plant response rating, Ryegrass, Italian: 125 g ai/ha, visual injury after approximately 10 d, 0 to 100 scale where 0 is no effect and 100 is complete control; for Ryegrass, Italian plant response rating (0 to 100 scale, 0 is no effect, 100 is complete control): 500 g ai/ha, visual injury approx. 10 d
Description: as §2, §3

[8] = test system: pigweed (Amaranthus retroflexus); test: Test A preemergence; settings: Preemergence; for Plant response rating, Pigweed: 125 g ai/ha, visual injury after approximately 10 d, 0 to 100 scale where 0 is no effect and 100 is complete control; for Pigweed plant response rating (0 to 100 scale, 0 is no effect, 100 is complete control): 500 g ai/ha, visual injury approx. 10 d
Description: as §2, §3

[9] = test system: Kochia (Kochia scoparia); test: Test A preemergence; settings: Preemergence; for Plant response rating, Kochia: 125 g ai/ha, visual injury after approximately 10 d, 0 to 100 scale where 0 is no effect and 100 is complete control; for Kochia plant response rating (0 to 100 scale, 0 is no effect, 100 is complete control): 500 g ai/ha, visual injury approx. 10 d
Description: as §2, §3

[10] = test system: ragweed (common ragweed, Ambrosia elatior); test: Test A preemergence; settings: Preemergence; for Plant response rating, Ragweed: 125 g ai/ha, visual injury after approximately 10 d, 0 to 100 scale where 0 is no effect and 100 is complete control; for Ragweed plant response rating (0 to 100 scale, 0 is no effect, 100 is complete control): 500 g ai/ha, visual injury approx. 10 d
Description: as §2, §3

[11] = test system: giant foxtail (Setaria faberii); test: Test A postemergence; settings: for Foxtail, Giant plant response rating: visual injury rating on 0 to 100 scale (0 no effect, 100 complete control), approx. 10 d
Description: as §2, §3

[12] = test system: Galium (catchweed bedstraw, Galium aparine); test: Test A postemergence; settings: for Galium plant response rating: visual injury rating on 0 to 100 scale (0 no effect, 100 complete control), approx. 10 d
Description: as §2, §3

[13] = test system: barnyardgrass (Echinochloa crus-galli); test: Test A postemergence; settings: for Barnyardgrass plant response rating: 125 g ai/ha, postemergence, visual injury rating on 0 to 100 scale (0 no effect, 100 complete control), approx. 10 d; for Plant response rating, Barnyardgrass: Postemergence, 500 g ai/ha, 0 to 100 scale where 0 is no effect and 100 is complete control
Description: as §2, §3

[14] = test system: ryegrass, Italian (Italian ryegrass, Lolium multiflorum); test: Test A postemergence; settings: for Ryegrass, Italian plant response rating: visual injury rating on 0 to 100 scale (0 no effect, 100 complete control), approx. 10 d
Description: as §2, §3

[15] = test system: wheat (Triticum aestivum); test: Test A postemergence; settings: for Wheat plant response rating: visual injury rating on 0 to 100 scale (0 no effect, 100 complete control), approx. 10 d
Description: as §2, §3

[16] = test system: corn (Zea mays); test: Test A postemergence; settings: for Corn plant response rating: visual injury rating on 0 to 100 scale (0 no effect, 100 complete control), approx. 10 d
Description: as §2, §3

[17] = test system: blackgrass (Alopecurus myosuroides); test: Test A postemergence; settings: for Blackgrass plant response rating: 125 g ai/ha, postemergence, visual injury rating on 0 to 100 scale (0 no effect, 100 complete control), approx. 10 d; for Plant response rating, Blackgrass: Postemergence, 500 g ai/ha, 0 to 100 scale where 0 is no effect and 100 is complete control
Description: as §2, §3

[18] = test system: pigweed (Amaranthus retroflexus); test: Test A postemergence; settings: for Pigweed plant response rating: visual injury rating on 0 to 100 scale (0 no effect, 100 complete control), approx. 10 d
Description: as §2, §3

[19] = test system: Kochia (Kochia scoparia); test: Test A postemergence; settings: for Kochia plant response rating: visual injury rating on 0 to 100 scale (0 no effect, 100 complete control), approx. 10 d
Description: as §2, §3

[20] = test system: ragweed (common ragweed, Ambrosia elatior); test: Test A postemergence; settings: for Ragweed plant response rating: visual injury rating on 0 to 100 scale (0 no effect, 100 complete control), approx. 10 d
Description: as §2, §3

[21] = Postemergence, 500 g ai/ha, 0 to 100 scale where 0 is no effect and 100 is complete control
[22] = 125 g ai/ha, postemergence, visual rating after approx. 10 d, 0 to 100 scale (0 no effect, 100 complete control)

Row | SMILES | Plant response rating, Foxtail, Giant [5] | Foxtail, Giant plant response rating (0 to 100 scale, 0 is no effect, 100 is complete control) [5] | Plant response rating, Barnyardgrass [6] | Barnyardgrass plant response rating (0 to 100 scale, 0 is no effect, 100 is complete control) [6] | Plant response rating, Ryegrass, Italian [7] | Ryegrass, Italian plant response rating (0 to 100 scale, 0 is no effect, 100 is complete control) [7] | Plant response rating, Pigweed [8] | Pigweed plant response rating (0 to 100 scale, 0 is no effect, 100 is complete control) [8] | Plant response rating, Kochia [9] | Kochia plant response rating (0 to 100 scale, 0 is no effect, 100 is complete control) [9] | Plant response rating, Ragweed [10] | Ragweed plant response rating (0 to 100 scale, 0 is no effect, 100 is complete control) [10] | Plant response rating, Foxtail, Giant [11, 21] | Plant response rating, Galium [12, 21] | Barnyardgrass plant response rating [13] | Plant response rating, Barnyardgrass [13] | Plant response rating, Ryegrass, Italian [14, 21] | Plant response rating, Wheat [15, 21] | Plant response rating, Corn [16, 21] | Blackgrass plant response rating [17] | also measured
1 | O=C1NCC(c2c(F)cccc2F)C1C(=O)Nc1cccc(F)c1F (racemic) [Compound 516] | 70 | 90 | 40 | 80 | 0 | 0 | 0 | 0 | 0 | 0 | 0 | 0 | 70 | 0 | 0 | 70 | 0 | 0 | 0 | 0 | Plant response rating, Rice ([1]; 250 g ai/ha): 0; Plant response rating, Sedge, Umbrella ([2]; 250 g ai/ha): 0; Plant response rating, Barnyardgrass ([3]; 250 g ai/ha): 0; Plant response rating, Ducksalad ([4]; 250 g ai/ha): 0; Foxtail, Giant plant response rating ([11]; 125 g ai/ha, postemergence): 0; Galium plant response rating ([12]; 125 g ai/ha, postemergence): 0; Ryegrass, Italian plant response rating ([14]; 125 g ai/ha, postemergence): 0; Wheat plant response rating ([15]; 125 g ai/ha, postemergence): 0; Corn plant response rating ([16]; 125 g ai/ha, postemergence): 0; Plant response rating, Blackgrass [17]: 0; Pigweed plant response rating ([18]; 125 g ai/ha, postemergence): 0; Plant response rating, Pigweed [18, 21]: 0; Kochia plant response rating ([19]; 125 g ai/ha, postemergence): 0; Plant response rating, Kochia [19, 21]: 0; Ragweed plant response rating ([20]; 125 g ai/ha, postemergence): 0; Plant response rating, Ragweed [20, 21]: 0
2 | O=C1NCC(c2c(F)cccc2F)C1C(=O)Nc1ccc(F)cc1F (racemic) [Compound 517] | 0 | 30 | 0 | 0 | 0 | 0 | 0 | 0 | 0 | 0 | 0 | 0 | 0 | 0 | 20 | 30 | 0 | 0 | 0 | 0 | Plant response rating, Rice ([1]; 250 g ai/ha): 0; Plant response rating, Sedge, Umbrella ([2]; 250 g ai/ha): 0; Plant response rating, Barnyardgrass ([3]; 250 g ai/ha): 0; Plant response rating, Ducksalad ([4]; 250 g ai/ha): 0; Foxtail, Giant plant response rating ([11]; 125 g ai/ha, postemergence): 0; Galium plant response rating ([12]; 125 g ai/ha, postemergence): 0; Ryegrass, Italian plant response rating ([14]; 125 g ai/ha, postemergence): 0; Wheat plant response rating ([15]; 125 g ai/ha, postemergence): 0; Corn plant response rating ([16]; 125 g ai/ha, postemergence): 0; Plant response rating, Blackgrass [17]: 0; Pigweed plant response rating ([18]; 125 g ai/ha, postemergence): 0; Plant response rating, Pigweed [18, 21]: 0; Kochia plant response rating ([19]; 125 g ai/ha, postemergence): 0; Plant response rating, Kochia [19, 21]: 0; Ragweed plant response rating ([20]; 125 g ai/ha, postemergence): 0; Plant response rating, Ragweed [20, 21]: 0
3 | O=C1NCC(c2ccc(C(F)(F)F)c(F)c2)C1C(=O)Nc1ccccc1F (racemic) [Compound 521] | 90 | 90 | 90 | 90 | 30 | 50 | 60 | 70 | 0 | 70 | 40 | 60 | 90 | 60 | 90 | 90 | 40 | 50 | 40 | 30 | Plant response rating, Rice ([1]; 250 g ai/ha): 0; Plant response rating, Sedge, Umbrella ([2]; 250 g ai/ha): 0; Plant response rating, Barnyardgrass ([3]; 250 g ai/ha): 40; Plant response rating, Ducksalad ([4]; 250 g ai/ha): 85; Foxtail, Giant plant response rating ([11]; 125 g ai/ha, postemergence): 70; Galium plant response rating ([12]; 125 g ai/ha, postemergence): 50; Ryegrass, Italian plant response rating ([14]; 125 g ai/ha, postemergence): 20; Wheat plant response rating ([15]; 125 g ai/ha, postemergence): 20; Corn plant response rating ([16]; 125 g ai/ha, postemergence): 30; Plant response rating, Blackgrass [17]: 40; Pigweed plant response rating ([18]; 125 g ai/ha, postemergence): 40; Plant response rating, Pigweed [18, 21]: 50; Kochia plant response rating ([19]; 125 g ai/ha, postemergence): 0; Plant response rating, Kochia [19, 21]: 20; Ragweed plant response rating ([20]; 125 g ai/ha, postemergence): 0; Plant response rating, Ragweed [20, 21]: 0
4 | O=C1NCC(c2ccc(Oc3ccccc3)cc2)C1C(=O)Nc1ccccc1F (racemic) [Compound 534] | 0 | 0 | 0 | 0 | 0 | 0 | 0 | 0 | 0 | 0 | 0 | 0 | 0 | 0 | 0 | 0 | 0 | 0 | 0 | 0 | Plant response rating, Rice ([1]; 500 g ai/ha): 20; Plant response rating, Sedge, Umbrella ([2]; 500 g ai/ha): 0; Plant response rating, Barnyardgrass ([3]; 500 g ai/ha): 0; Plant response rating, Ducksalad ([4]; 500 g ai/ha): 0; Plant response rating, Foxtail, Giant [11, 22]: 0; Plant response rating, Galium [12, 22]: 0; Plant response rating, Ryegrass, Italian [14, 22]: 0; Plant response rating, Wheat [15, 22]: 0; Plant response rating, Corn [16, 22]: 0; Plant response rating, Blackgrass [17]: 0; Plant response rating, Pigweed [18, 22]: 0; Plant response rating, Pigweed [18, 21]: 0; Plant response rating, Kochia [19, 22]: 0; Plant response rating, Kochia [19, 21]: 0; Plant response rating, Ragweed [20, 22]: 0; Plant response rating, Ragweed [20, 21]: 0
